Values quoted from earlier work as cited in US20080139661A1, “Fragranted moistening fluids that destroy and/or inhibit the growth of biological organisms while minimizing a tacky build up” (Pitney Bowes Incorporated, priority 2006, published 2008).

Conditions: at 20° C., typical value

O [Water]
surface tension: around 72 dynes/cm
